A word on the pIC50: it is the negative decadic logarithm of the IC50, by convention in mol/L.

This passage reports IC50 results from ChEMBL document CHEMBL1147661, “The first potent inhibitor of mammalian group X secreted phospholipase A2: elucidation of sites for enhanced binding” (J Med Chem, 2006).

pIC50: −log10 of the molar value.

Test [1] deals with T1, Phospholipase A2 group V (Homo sapiens, UniProt P39877).
T1 sequence (P39877 whole entry): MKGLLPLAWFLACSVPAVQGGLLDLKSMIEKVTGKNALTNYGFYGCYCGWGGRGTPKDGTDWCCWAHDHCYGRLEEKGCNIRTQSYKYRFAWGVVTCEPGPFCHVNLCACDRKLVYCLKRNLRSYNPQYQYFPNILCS
Briefly: Inhibition of human recombinant sPLA2 G5.

Test [2] concerns the target T2, Phospholipase A2 group V (Mus musculus, UniProt P97391).
T2 sequence (P97391 whole entry): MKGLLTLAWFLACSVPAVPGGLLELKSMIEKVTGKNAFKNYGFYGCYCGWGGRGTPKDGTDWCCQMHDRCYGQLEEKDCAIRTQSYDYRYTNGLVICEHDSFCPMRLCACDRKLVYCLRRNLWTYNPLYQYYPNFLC
Nature of the test: Inhibition of mouse recombinant sPLA2 G5.

Test [3] deals with Phospholipase A2 (Homo sapiens, UniProt P04054). Nature of the test: Inhibition of human recombinant sPLA2 G1B.
Phospholipase A2 (Homo sapiens, UniProt P04054), sequence (P04054 whole entry): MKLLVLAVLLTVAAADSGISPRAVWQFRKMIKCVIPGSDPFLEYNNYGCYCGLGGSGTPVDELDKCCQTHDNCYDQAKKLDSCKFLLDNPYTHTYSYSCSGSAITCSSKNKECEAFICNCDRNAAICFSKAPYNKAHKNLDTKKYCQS
Test [4] concerns the target Phospholipase A2 (Mus musculus, UniProt Q9Z0Y2). Briefly: Inhibition of mouse recombinant sPLA2 G1B.
Test [5] concerns the target T3, Group 10 secretory phospholipase A2 (Mus musculus, UniProt Q9QXX3).
T3 sequence (Q9QXX3 whole entry): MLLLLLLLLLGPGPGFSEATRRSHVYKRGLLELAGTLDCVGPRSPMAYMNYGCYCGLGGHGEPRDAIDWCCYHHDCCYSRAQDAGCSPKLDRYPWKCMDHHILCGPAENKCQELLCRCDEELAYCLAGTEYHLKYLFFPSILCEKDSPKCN
Nature of the test: Inhibition of mouse recombinant sPLA2 G10.

Test [6] concerns the target T4, Group IIE secretory phospholipase A2 (Mus musculus, UniProt Q9QUL3).
T4 sequence (Q9QUL3 whole entry): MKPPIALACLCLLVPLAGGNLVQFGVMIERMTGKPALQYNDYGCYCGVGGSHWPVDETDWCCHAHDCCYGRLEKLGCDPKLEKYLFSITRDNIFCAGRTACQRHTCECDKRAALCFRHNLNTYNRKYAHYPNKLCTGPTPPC
Nature of the test: Inhibition of mouse recombinant sPLA2 G2E.

The target of test [7] is T5, Group IIE secretory phospholipase A2 (Homo sapiens, UniProt Q9NZK7).
T5 sequence (Q9NZK7 whole entry): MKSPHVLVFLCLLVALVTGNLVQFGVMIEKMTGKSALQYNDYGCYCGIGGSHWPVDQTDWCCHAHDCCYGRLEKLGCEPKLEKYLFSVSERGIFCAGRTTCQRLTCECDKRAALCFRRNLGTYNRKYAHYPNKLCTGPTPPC
Nature of the test: Inhibition of human recombinant sPLA2 G2E.

Test [8] concerns the target T6, Phospholipase A2, membrane associated (Homo sapiens, UniProt P14555).
T6 sequence (P14555 whole entry): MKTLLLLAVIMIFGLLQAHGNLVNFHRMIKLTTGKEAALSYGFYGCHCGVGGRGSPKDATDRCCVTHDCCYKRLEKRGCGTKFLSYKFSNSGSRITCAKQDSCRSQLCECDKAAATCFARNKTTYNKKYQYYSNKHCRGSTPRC
Nature of the test: Inhibition of human recombinant sPLA2 G2A.

The target of test [9] is T7, Phospholipase A2, membrane associated (Mus musculus, UniProt P31482).
T7 sequence (P31482 whole entry): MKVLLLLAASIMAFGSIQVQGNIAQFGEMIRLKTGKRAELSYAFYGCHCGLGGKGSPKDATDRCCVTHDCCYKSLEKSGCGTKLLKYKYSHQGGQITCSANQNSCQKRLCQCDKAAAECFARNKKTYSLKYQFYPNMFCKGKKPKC
Nature of the test: Inhibition of mouse recombinant sPLA2 G2A.

The target of test [10] is T8, Group 10 secretory phospholipase A2 (Homo sapiens, UniProt O15496).
T8 sequence (O15496 whole entry): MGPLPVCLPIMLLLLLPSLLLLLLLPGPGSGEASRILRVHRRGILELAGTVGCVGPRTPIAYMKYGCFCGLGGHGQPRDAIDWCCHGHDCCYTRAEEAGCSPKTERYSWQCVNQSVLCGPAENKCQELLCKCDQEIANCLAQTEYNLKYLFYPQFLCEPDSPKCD
Nature of the test: Inhibition of human recombinant sPLA2 G10.

Phospholipase A2 (Mus musculus, UniProt Q9Z0Y2), sequence (Q9Z0Y2 whole entry): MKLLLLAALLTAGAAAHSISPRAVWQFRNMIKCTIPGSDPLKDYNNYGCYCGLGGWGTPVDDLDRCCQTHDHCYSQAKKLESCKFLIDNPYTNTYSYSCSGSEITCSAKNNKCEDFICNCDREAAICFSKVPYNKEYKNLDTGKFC

For the compound `Cc1cc(OCC(=O)O)c2c(C(=O)C(N)=O)c(C)n(Cc3ccccc3)c2c1`, the negative-log IC50 (pIC50) is 6.10 on Phospholipase A2 group V [1]; 6.07 on Phospholipase A2 group V [2]; 5.70 at Phospholipase A2 [3]; 5.70 on Phospholipase A2 [4]; 5.60 in test [5]; 6.40 in test [6]. In addition, the pIC50 in test [7] is 6.90; in [8] it was 6.52; in test [9], 6.90; in [10] it was 5.66.
Consider `CCc1c(C(=O)C(N)=O)c2c(OCC(=O)O)cc(C)cc2n1Cc1ccccc1`, for which the negative logarithm of the IC50 (pIC50) at Phospholipase A2 [3] was 6.10; at Phospholipase A2 [4], 6.70; in test [6], 7.12; in test [7], 7.30; in [8], 6.90.
Turning to `Cc1c(C(=O)C(N)=O)c2c(OCC(=O)O)cccc2n1Cc1ccccc1`, the pIC50 at Phospholipase A2 group V [1] was 6.10; on Phospholipase A2 group V [2], 6.00; on Phospholipase A2 [3], 5.60; at Phospholipase A2 [4], 5.66; in test [5] it was 5.60; in [6], 6.40. Also, the pIC50 in test [7] was 7.12; in test [8], 6.56; in [9], 6.90; in [10], 5.70.
Turning to `CCc1c(C(=O)C(N)=O)c2c(OCC(=O)O)cccc2n1Cc1ccccc1` [VARESPLADIB], the negative-log IC50 (pIC50) on Phospholipase A2 group V [1] was 6.30; at Phospholipase A2 group V [2], 6.12; at Phospholipase A2 [3], 6.12; at Phospholipase A2 [4], 6.85; in [5] it was 7.12; in [6] it was 7.12. Further, the negative logarithm of the IC50 (pIC50) in [7] is 7.30; in test [9] it was 7.15.
